Legend:
[1] = test system: cardiac tissue prostacyclin (PGI2) to thromboxane A2 (TXB2) ratio; assay: Cardiac tissue prostacyclin to thromboxane ratio; type: in vivo, rat; settings: male Wistar rats; for Cardiac Tissue PGI2/TXB2, Mean: oral gavage, heart removed 6 hours after dosing
Source text: Myocardial infarction and ischemic events in high risk patients led one of the most popular COX-2 inhibitors to its demise (Bresalier et al., 2005). Non-selective NSAIDS may also cause similar problems due to their ability to inhibit COX-2. […] Adenosine diphosphate (ADP) generation is an indicator of myocardial infarction which has no connection with the arachidonic acid cascade (Borna et al., 2005). […] Long term NSAID use has been linked to kidney damage and hypertension (Zafirovska et al., 1993). […] This was associated with an increase in the urine the ratio of alanine-amino-peptidase (AAP) and creatinine.
(§1) Table 1 is a summary of the protocol for a study which was conducted in male Wistar rats weighing 275-300 grams. The animals were allowed to acclimatize for at least five days prior to the commencement of the study. The study protocol was approved by the local animal ethics committee.
All rats were euthanized by removal of the heart 6 hours after initial dosing, following final blood collections. Immediately after terminal blood collections were complete, the thorax was opened and the heart removed. The heart was cut in half longitudinally. Half of the heart was placed in formalin for histological examination. The other half was quickly rinsed in saline and then freeze-clamped (crushed between the jaws of a pair of modified tongs, cooled by liquid nitrogen). An entire kidney was freeze-clamped. The other kidney was left in situ for examination by the pathologist. Freeze-clamped tissues were wrapped in labeled aluminum foil and stored in liquid nitrogen until they could be transferred to a −80° C. freezer. Freeze-clamped tissues were shipped on dry ice to NOVOKIN for analysis.

[2] = Serum nitrate concentration (NO release) after oral dosing; type: in vivo, rat; settings: male Wistar rats, oral gavage, at 6 hours
Description: as §1
The animals were fasted overnight prior to test substance administration. The test substance was administered orally by gavage on the morning of the study day. All test animals had blood collected during the test period in both EDTA (ethylenediaminetetraacetic acid) tubes and SST (Serum Separator Tubes) at 1, 3 and 6 hours after dosing. Blood was collected into EDTA tubes only at 1 and 3 hours by tail tip amputation. Volume of blood collected was between 0.5 and 1 mL at each of these collections. The final collection was by puncture of the abdominal vena cava under isoflurane general anesthesia. Final blood collection was targeted as follows: 1st EDTA #1—1.5 mL; 2nd SST—1.5 mL; 3rd EDTA #2—as much as possible.
EDTA samples were centrifuged, and the plasma portion was collected and frozen at −80° C. SST samples were incubated at 37° C. for approximately 45 minutes, centrifuged, and the serum was collected and frozen at −80° C. until analysis.

[3] = Hydrolysis in rat intestinal microsomes; type: in vitro ADME; settings: for intestinal microsomal activity: model input
Source text: (§2) The physiologically based pharmacokinetic/pharmacodynamic model of the present invention contains a series of compartments that describe the time course of a nonsteroidal anti-inflammatory prodrug, its active metabolites and nitric oxide release in intestine, liver, kidneys, blood/plasma and heart after prodrug administration. The time course of the prodrug, its active metabolites and nitric oxide release can be simulated using a series of in vitro and in silico inputs. The stability of each component in the gastrointestinal lumen is estimated using data collected from artificial gastric and intestinal juice. Intestinal metabolism is estimated using intestinal microsomes and absorption rate is estimated using permeability data collected from a cell monolayer such as Caco-2. Hepatic elimination is estimated using liver microsomes and stability in plasma is calculated using degradation of each component in the media. Plasma protein binding can either be measured using a standardized in vitro method or it can be estimated using an in silico method. The distribution of each component in various parts of the body is estimated using an in silico method. The rate of nitric oxide release is estimated using an in vitro endothelial cell model. The time course of prodrug, its active metabolites and nitric oxide can be simulated in human and animal using this physiologically based pharmacokinetic/pharmacodynamic model provided that the corresponding in vitro and in silico data are used as inputs.
(§3) Representative in vitro tests or in silico estimates include: (a) pKa estimation or measurement; (b) Log P measurement or in silico estimation; (c) Solubility in various physiological fluids; (d) Permeability. Caco-2 and/or NOVOKIN's proprietary animal and human cell lines can be used to obtain this parameter; (e) Metabolic rate in the intestine and liver. Human or animal intestinal microsomes, S9 fraction, and cytosol can be used for this purpose. Human or animal hepatocytes, liver microsomes, S9 fraction, and cytosol can also be used; (f) Hydrolysis in human or animal plasma; (g) Serum or plasma protein binding. It can be measured in vitro or estimated in silico; (h) The rate of NO release; (i) Existing pharmacokinetic and pharmacodynamic data of NSAID or a biocompatible agent; (j) Existing NO release rate of known diazeniumdiolate if applicable; (k) Stability in gastric and intestinal environment; and (l) In silico volume of distribution estimation.
(§4) Whenever in vitro estimate is attainable, the in vitro results will be used, for example, plasma protein binding. Methods reported by Bowalgaha & Miners (2001), Martignoni et al. (2006), Tong et al. (2001) and Thulesen et al. (1999) were used for in vitro and in vivo scale-up for clearance in the intestine, absorption rate constant and hepatic clearance. The simulation begins with no material in all compartments except for the initial bolus in one compartment (typically the stomach compartment). The simulation then estimates the changing distribution of the material with time.

[4] = Hydrolysis in rat liver microsomes; type: in vitro ADME; settings: for liver microsomal activity: model input
Source text: as §2, §3, §4

[5] = Stability in intestinal lumen (decay rate); type: in vitro ADME
Source text: as §2, §3

[6] = Hydrolysis in human liver microsomes; type: in vitro ADME; settings: for liver microsomal activity: model input
Source text: as §2, with “The” for “The physiologically based pharmacokinetic/pharmacodynamic model of the present invention contains a series of compartments that describe the time course of a nonsteroidal anti-inflammatory prodrug, its active metabolites and nitric oxide release in intestine, liver, kidneys, blood/plasma and heart after prodrug administration. The”
The selection of in vitro tests is designed to provide parameters for the above mentioned model. The use of an inappropriate test would result in wrong predictions.
as §3
The simulation begins with no material in all compartments except for the initial bolus in one compartment (typically the stomach compartment). The simulation then estimates the changing distribution of the material with time.

[7] = Hydrolysis in rat plasma; type: in vitro ADME; settings: Rat
Source text: as §2, §3

Row | Structure (SMILES) | Cardiac Tissue PGI2/TXB2, Mean [1] | Serum Nitrate Concentrations, Mean [2] | intestinal molar percent conversion to Naproxen [3] [%] | intestinal microsomal activity [3] [mL/min/organ] | liver molar percent conversion to Naproxen [4] [%] | liver microsomal activity [4] [mL/min/organ] | intestinal lumen decay rate constant ([5]; Human) [min⁻¹] | intestinal lumen decay rate constant ([5]; Rat) [min⁻¹] | liver molar percent conversion to Naproxen [6] [%] | liver microsomal activity [6] [mL/min/organ] | plasma decay rate constant [7] [min⁻¹] | PGI2/TXA2 ratio comparison (in words) ([1]; cardiac tissue)
1 | COc1ccc2cc(C(C)C(=O)OCON=[N+]([O-])N3CCCC3)ccc2c1 (centres unmarked) [PYRO-NO-NAP, pyrrolidino-diazeniumdiolate-naproxen] | 4.937 | 389.000 | 10 | 1 | 40 | 1920 | 0.025 | 0.025 | 72 | 567000 | 1.4 | –
2 | COc1ccc2cc([C@H](C)C(=O)OCCCCO[N+](=O)[O-])ccc2c1 [AZD 3582] | 3.432 | 460.667 | – | 0.09 | – | 1029 | 0 | 0 | – | 118566 | 1.0 | lower ratios than vehicle
